These results are taken from PubChem BioAssay AID449762 (Southern Research Specialized Biocontainment Screening …, 2010).

pIC50: −log10 of the molar value. Records with an inconclusive call do not appear.

In the assay the test system is M. tuberculosis H37Rv growth inhibition, 7H9 media. Put plainly: M. tuberculosis growth inhibition, HTS (AID 449762).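 On all read-outs here: bacterial growth assessed after seven days of incubation.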 The note with it: for IC90: measured here: IC90 growth inhibition.

By pIC50 is commonly meant the negative decadic logarithm of the IC50, by convention in mol/L. A word on the IC90: it is the concentration needed for an effect of 90%. Low readings indicate greater potency, high ones weaker potency. As for `CCNCC(=O)N1c2ccccc2CCc2ccc(NC(=O)OC(C)C)cc21`, the pIC50 is 4.25 and the IC90 turned out to be 71.3 µM. Consider `Cc1nc(SCC(=O)NC2CCCCC2)[nH]c(=O)c1C`, for which the pIC50 is over 6.70 and the IC90 is under 0.2 µM. `CCOc1ccc(/C=C/C2=Cc3c(sc(NC(=O)CSc4n[nH]c(N)n4)c3C#N)C(C)(C)C2)cc1` came in with an IC90 of over 100 µM.

On to `O=C(Nc1ccn(Cc2ccccc2F)n1)c1ccc(COc2ccccc2Cl)cc1`, for which the pIC50 is 4.93 and the IC90 turned out to be 13.2 µM. The matching figures for `Cn1cccc1/C=C1/C(=O)NC(=S)N(Cc2ccc(F)cc2)C1=O`: 4.62 and over 100 µM. On the same counts, the results for `Cc1cccc(CNc2ncnc3ccc(-c4ccc5c(c4)OCCO5)cc23)c1` are 5.23 and 6.77 µM.

On to `C=CCOC(=O)COc1ccc2c(C)c(CC)c(=O)oc2c1`, for which the pIC50 is 5.97 and the IC90 turned out to be 2.21 µM. Regarding `COc1ccc2nc(N=NC3=C(O)CC(C)(C)CC3=O)sc2c1`, the negative-log IC50 (pIC50) is 4.91 and the IC90 was determined as 13.7 µM. On the same counts, the results for `COc1ccc2nc(NC(=O)C3CCCN(S(=O)(=O)c4cccs4)C3)sc2c1` (stereo unspecified) are 4.74 and 27.6 µM.

Regarding `O=C(OCC(=O)N1CCCCC1)c1cc2ccccc2cc1O`, the negative logarithm of the IC50 (pIC50) was 5.30 and the IC90 was found to be 9.61 µM.

For the molecule `CCN(C[C@H]1N[C@@](Cc2ccccc2)(C(=O)OC)[C@H]2C(=O)N(Cc3ccccc3)C(=O)[C@@H]12)C(=O)Nc1ccc(C(F)(F)F)cc1`, the negative logarithm of the IC50 (pIC50) was 4.98 and the IC90 is 11.4 µM. Regarding `COc1ccc(-n2c(-c3ccc(Cl)cc3)c[n+]3c2CCc2ccccc2-3)cc1`, the pIC50 was 4.79 and the IC90 turned out to be 24.2 µM.

For `O=C1NCN(c2ccccc2)C12CCN(CCCC(c1ccc(F)cc1)c1ccc(F)cc1)CC2`, the pIC50 is 4.43 and the IC90 came to 47.1 µM. The matching figures for `Cc1cc(C)c2nc(-c3ccncc3)cc(C(=O)N3CCN(Cc4ccccc4Cl)CC3)c2c1`: 4.64 and 26.1 µM. The matching figures for `N#CC(C#N)=C(N)CSc1cccc[n+]1[O-]`: 5.20 and 11 µM.

With `CC(C)CS(=O)(=O)C1=NN2C(=N)/C(=C\c3ccc(OC(=O)c4ccco4)cc3)C(=O)N=C2S1`, the pIC50 is 4.69 and the IC90 worked out at 25.9 µM. On the same counts, the results for `CCOC(=O)c1ccc(N=C2S/C(=C\c3cc(C)n(-c4cccnc4)c3C)C(=O)N2C)cc1` are 4.01 and over 100 µM. Regarding `COC(=O)C(C)Oc1cc(C)ccc1COc1ccc(-n2nc(C)n(C(F)F)c2=O)cc1` (stereo unspecified), the pIC50 is 4.78 and the IC90 turned out to be 32.9 µM.

As for `CCCN(CCC)CCNC(=O)c1cc2c(-c3ccc(Cl)cc3)nn(C)c2s1`, the pIC50 is 4.71 and the IC90 turned out to be 27.7 µM. The matching figures for `CC(C)(C)c1ccc(C(=O)NC(=S)NNC(=O)COc2ccccc2)cc1`: 5.47 and 8.56 µM. In the case of `CC1(C)Cc2c(sc(NC(=O)c3ccc(C(=O)c4ccccc4)cc3)c2C(N)=O)C(C)(C)N1`, the pIC50 is 4.65 and the IC90 was over 100 µM. The matching figures for `COc1nn(-c2ccccc2)c(=O)c(Cl)c1Cl`: 5.26 and 9.06 µM.

With `CCOC(=O)c1ccc(-n2c(CCC(=O)O)ccc2-c2cccs2)cc1`, the pIC50 was 5.04 and the IC90 came out at 14 µM. The matching figures for `CC(C)Cc1ccc(C(C)C(N)=NCCc2ccccc2)cc1` (stereo unspecified): 4.65 and 25.8 µM.

For the molecule `O=C(Oc1c(Cl)cc(Cl)c2cccnc12)c1cccs1`, the pIC50 was 6.05 and the IC90 is 1.24 µM. On the same counts, the results for `COc1ccccc1C(=O)NNC(=O)C(=O)NCc1ccccc1` are 4.98 and 37.9 µM. For `Cc1ccc(/C=N/NC(=S)NC(C)C)o1`, the pIC50 was 4.37 and the IC90 came out at 47.9 µM. The matching figures for `COc1ccccc1/C(C)=N/NC(=S)NCc1ccccc1`: 4.63 and 26.6 µM.

`Cc1cc(C)cc(-n2c(C)c3c(C)nnc(C)c3c2C)c1`: the pIC50 is 4.20 and the IC90 was determined as 78.1 µM. As to `Cn1cc(/C=C2\C(=O)NC(=O)N(c3ccccc3)C2=O)c2ccccc21`, the pIC50 was 4.97 and the IC90 stood at 24.2 µM. The matching figures for `COc1ccc(C=C2C=C(C(C)(C)C)C(=O)C(C(C)(C)C)=C2)cc1OC`: 5.53 and 5.15 µM. The matching figures for `CC1CCN(c2nc(Cl)nc(Nc3ccc([N+](=O)[O-])cc3)n2)CC1`: 4.10 and over 100 µM. For the molecule `OCCCNc1cc(-c2ccnc(Nc3cccc(Cl)c3)n2)ccn1`, the pIC50 is 4.68 and the IC90 came out at 45 µM.

With `Cc1ccc(NC(=O)COc2ccc(-n3ccnc3)cc2)cc1Cl`, the pIC50 was 4.61 and the IC90 came out at 28.8 µM. Turning to `CCCCCn1c(=O)c2ccccc2n2c(CCl)nnc12`, the pIC50 was 6.32 and the IC90 was determined as 2.21 µM. On the same counts, the results for `COc1ccc(Nc2nc(N3CCCCC3)nc3ccccc23)c(OC)c1` are 4.72 and 26.5 µM. The matching figures for `C/C(=N\NC(N)=S)C1C2C3CC4C5CC(C42)C1C53` (stereo unspecified): 4.55 and 58.2 µM. On the same counts, the results for `Cc1ccc(C)c(-c2nn(-c3cc(N4CCN(CCO)CC4)ccc3[N+](=O)[O-])c(=O)c3ccccc23)c1` are 4.90 and 28.7 µM. Consider `O=c1c2c(nc3nc(NCc4ccc(Cl)cc4)[nH]n13)CCC2`, for which the pIC50 was 5.20 and the IC90 was found to be 7.32 µM. For the molecule `O=C(NC1CCN(Cc2ccccc2)CC1)c1cccc(S(=O)(=O)Nc2ccc(SC(F)F)cc2)c1`, the pIC50 is 4.81 and the IC90 turned out to be 21.9 µM. On the same counts, the results for `O=C(/C=C/c1cn(-c2ccccc2)nc1-c1cccnc1)c1ccco1` are 4.83 and 46.6 µM. The matching figures for `CCCNC1=C(N(C(C)=O)c2cccc(F)c2)C(=O)c2ccccc2C1=O`: 4.94 and 20.1 µM. The matching figures for `CCCCS/C(N)=N/N=C/c1cc(C)ccc1O`: 4.91 and 13.9 µM.

Turning to `COc1cc(N)c(Cl)cc1C(=O)N[C@H]1CCN(CCCOc2ccc(F)cc2)C[C@H]1OC`, the pIC50 is 4.36 and the IC90 is 55.2 µM.

For `CC(OC(=O)c1cc(Cl)ccc1[N+](=O)[O-])C(=O)NC(C)c1ccc(F)cc1` (stereo unspecified), the pIC50 is 4.64 and the IC90 turned out to be 26 µM. On the same counts, the results for `COc1ccc(-c2oc(NC(=O)CCl)c(C#N)c2-c2ccc(OC)cc2)cc1` are 4.90 and 54.7 µM. On to `O=C(CCn1c(=O)c2cccn2c2cccnc21)N1CCN(c2cccc(Cl)c2)CC1`, for which the pIC50 was 4.51 and the IC90 worked out at 41.8 µM. On the same counts, the results for `O=C(Oc1ccccc1)c1ccccc1OS(=O)(=O)c1ccccc1` are 5.96 and 14.3 µM. On the same counts, the results for `CCOC(=O)c1ccc(N=C2C(=S)N(c3ccc(C(=O)OCC)cc3)C(=N)N2/N=C/c2ccccc2)cc1` are 4.16 and over 100 µM. The matching figures for `CCC1(c2ccccc2)ON(c2c(Br)cccc2Br)C1=O` (stereo unspecified): 4.77 and 50.4 µM. Take `Cc1ccccc1N1CCN(c2ncnc3c2cnn3Cc2ccc(Cl)cc2)CC1`: the pIC50 was 5.29 and the IC90 turned out to be 8.72 µM.
